25 molecules from patent publication US20230286927A1, “2-PHENYLBENZOTRIAZOL-5-AMINE DERIVATIVES FOR THE TREATMENT AND PROPHYLAXIS OF HEPATITIS B VIRUS (HBV) INFECTION” (priority 2020, published 2023) can be followed below.

One series deals with HBsAg. Nature of the series: PHH natural infection assay, HBsAg (alphalisa). Type of series: cell-based, HBV. Conditions: Hepatitis B virus, Hepatocyte, 72 h, read-out: HBsAg IC50. How it is done:
(§1) Detailed procedures regarding primary human hepatocyte (PHH) HBV natural infection assay are described as below. One tube of frozen PHH (10 million cells) is thawed in 37° C. water bath and then transferred to 20 mL of PHH thawing medium (Sigma, InVitroGRO HT Medium, Cat. S03319) with gently mixing. The cells were then centrifuged at […] for 5 min, the supernatant was discarded and the tube was refilled with 25 mL of PHH plating medium (Sigma, InVitroGRO CP Medium, Cat. S03317). The tube was shaken very gently to re-suspend all cells, and then 50 μl of cells were transferred to each well 384-well collagen I coated plate with appropriate liquid handling equipment, e.g. Integra VIAFLO384 or Agilent Bravo. The cells were then cultured for 24 hours in a cell incubator. For HBV infection, after PHH attachment on the culture plate, the plating medium was removed and replenished with PHH culture medium containing HBV virus. The PHH culture medium was prepared with Dulbecco's Modified Eagle Medium (DMEM)/F12 (1:1 in volume ratio) containing 10% fetal bovine serum (Gibco, Cat. 10099141), 5 ng/mL human epidermal growth factor (Gibco, Cat.PHG031IL), 20 ng/mL dexamethasone (Sigma, Cat.D4902-100 mg), 250 ng/mL human recombinant insulin (Gibco, Cat.41400045) and 100 U/mL penicillin. HBV virus at 200 genome equivalent (GE) per cell with 4% PEG8000 (Sigma, Cat.P1458) containing culture medium were added to the PHH culture medium for infection. The cells were then cultured for 24 hours in cell incubator. Then the cell culture supernatant was removed. The HBV-infected PHH were cultured with sandwich culture method with PHH culture medium containing 1% DMSO and 0.25 mg/mL matrix gel for 72 hours. The supernatant was then refreshed with PHH culture medium containing different concentrations of testing compounds for two times with 72-hour interval. At the end of treatment, the supernatant was collected for viral markers measurements, including HBsAg, HBeAg, HBV DNA and cytotoxicity. HBsAg and HBeAg were detected using alphalisa method using their specific antibodies. For HBV DNA detection, HBV DNA Quantitative Fluorescence Diagnostic Kit (Sansure Biotech Inc.) was used following the manufacture's protocol. Cytotoxicity was determined using Cell Counting Kit-8 (CCK8, Dojindo Molecular Technologies, Inc.).
(§2) The compounds of the present invention were tested for their capacity to inhibit HBsAg and HBeAg as described herein.

In a further series the test system is HBeAg. Nature of the series: PHH natural infection assay, HBeAg (alphalisa). Type of series: cell-based, HBV. The conditions noted are these: Hepatitis B virus, Hepatocyte, 72 h, read-out: HBeAg IC50. How it is done: as §1, §2
Background: Bead proximity is the source of the signal in Alpha formats.

The nature of series [1]: Cytotoxicity in PHH natural infection assay (Cell Counting Kit-8). Type of series: cell-based. Conditions: HBV-infected primary human hepatocytes, CCK8. The method, then:
as §1
Background: Tetrazolium dyes change colour on reduction, which living cells bring about.

Broadly, the IC50 is the point on the concentration scale where inhibition reaches its midpoint. For orientation: CC50 means the concentration at which the toxic effect on the cells reaches its halfway point. Low values mean harm at low concentration, high ones better tolerance by the cells. `FC(F)(F)CNc1ccc2nn(-c3ccc(Cl)cc3)nc2c1` [Example 28, 2-(4-Chlorophenyl)-N-(2,2,2-trifluoroethyl)benzotriazol-5-amine]: the IC50 came out at 2.14 µM in the series on HBsAg and 2.46 µM with HBeAg. Besides, the CC50 at 144 h in series [1] is over 100 µM.
With `Clc1ccc(-n2nc3ccc(NC4CCC4)cc3n2)cc1` [Example 29, 2-(4-Chlorophenyl)-N-cyclobutyl-benzotriazol-5-amine], the IC50 with HBsAg was 5.55 µM; in the series on HBeAg it was 9.23 µM. Also, in series [1], the CC50 at 144 h is over 100 µM.
Turning to `CC(C)Nc1ccc2nn(-c3ccc(Cl)cc3)nc2c1` [Example 30, 2-(4-Chlorophenyl)-N-isopropyl-benzotriazol-5-amine], the IC50 in the series on HBsAg worked out at 3.75 µM; in the series on HBeAg, 6.61 µM. Moreover, the CC50 at 144 h in series [1] was over 100 µM.
Turning to `Clc1ccc(-n2nc3ccc(NC4CCCC4)cc3n2)cc1` [Example 31, 2-(4-Chlorophenyl)-N-cyclopentyl-benzotriazol-5-amine], the figures for the concentration for half-maximal inhibition (IC50) with HBsAg and in the series on HBeAg were 8.86 µM and 11.9 µM, respectively. The CC50 at 144 h in series [1] is over 100 µM.
Regarding `CC(Nc1ccc2nn(-c3ccc(Cl)cc3)nc2c1)C(F)(F)F` (stereo not drawn) [Example 32, 2-(4-Chlorophenyl)-N-(2,2,2-trifluoro-1-methyl-ethyl)benzotriazol-5-amine], the IC50 in the series on HBsAg was found to be 9.14 µM; with HBeAg, 10.7 µM. The CC50 at 144 h in series [1] is over 100 µM.
For `CN(C)c1ccc2nn(-c3ccc(Cl)cc3)nc2c1` [Example 33, 2-(4-Chlorophenyl)-N,N-dimethyl-benzotriazol-5-amine] the same measures were 4 µM, 3.71 µM and over 100 µM.
Regarding `CCN(CC)c1ccc2nn(-c3ccc(Cl)cc3)nc2c1` [Example 34, 2-(4-Chlorophenyl)-N,N-diethyl-benzotriazol-5-amine], the IC50 in the series on HBsAg was 1.8 µM; in the series with HBeAg, 2.5 µM. Besides, the CC50 at 144 h in series [1] was over 100 µM.
In the case of `COCCN(C)c1ccc2nn(-c3ccc(Cl)cc3)nc2c1` [Example 35, 2-(4-Chlorophenyl)-N-(2-methoxyethyl)-N-methyl-benzotriazol-5-amine], the values for the IC50 in the series on HBsAg and in the series with HBeAg were 2 µM and 3.5 µM, respectively. The CC50 at 144 h in series [1] was over 100 µM.
For the molecule `CCN(C)c1ccc2nn(-c3ccc(Cl)cc3)nc2c1` [Example 36, 2-(4-Chlorophenyl)-N-ethyl-N-methyl-benzotriazol-5-amine], the results for the IC50 in the series with HBsAg and in the series with HBeAg were 4.03 µM and 4.45 µM, respectively. Moreover, in series [1], the CC50 at 144 h was over 100 µM.
`CNC(=O)CCNc1ccc2nn(-c3ccc(Cl)cc3)nc2c1` [Example 37, 3-[[2-(4-Chlorophenyl)benzotriazol-5-yl]amino]-N-methyl-propanamide]: the figures for the IC50 with HBsAg and in the series with HBeAg were 4.64 µM and 8.68 µM, respectively. For the same molecule, the CC50 at 144 h in series [1] is over 100 µM.
As for `CC(=O)Nc1ccc2nn(-c3ccc(Cl)cc3)nc2c1` [Example 38, N-[2-(4-chlorophenyl)benzotriazol-5-yl]acetamide], the IC50 with HBsAg was 3.65 µM; in the series with HBeAg, 5.54 µM. For the same molecule, in series [1], the CC50 at 144 h is over 100 µM.
As for `O=C(Nc1ccc2nn(-c3ccc(Cl)cc3)nc2c1)C1CCCCC1` [Example 39, N-[2-(4-chlorophenyl)benzotriazol-5-yl]cyclohexanecarboxamide], the values for the IC50 in the series with HBsAg and in the series on HBeAg were 3.91 µM and 2.89 µM, respectively. Moreover, the CC50 at 144 h in series [1] was over 100 µM.
With `O=C(Nc1ccc2nn(-c3ccc(F)cc3)nc2c1)C1CCOC1` (stereo not drawn) [Example 40, N-[2-(4-fluorophenyl)benzotriazol-5-yl]tetrahydrofuran-3-carboxamide], the IC50 with HBsAg came out at 6.66 µM; in the series on HBeAg it was 6.76 µM. This molecule registered a CC50 at 144 h in series [1] of over 100 µM.
For `O=C(Nc1ccc2nn(-c3ccc(F)cc3)nc2c1)C1CCOCC1` [Example 41, N-[2-(4-fluorophenyl)benzotriazol-5-yl]tetrahydropyran-4-carboxamide] the same measures were 2.19 µM, 2.31 µM and over 100 µM.
For the molecule `O=C(Nc1ccc2nn(-c3ccc(F)cc3)nc2c1)C1CCCCO1` (stereo not drawn) [Example 42, N-[2-(4-fluorophenyl)benzotriazol-5-yl]tetrahydropyran-2-carboxamide], the figures for the IC50 in the series on HBsAg and with HBeAg were 6.38 µM and 6.12 µM, respectively. In series [1], this molecule showed a cytotoxic concentration (CC50) at 144 h of over 100 µM.
On to `O=C(Nc1ccc2nn(-c3ccc(F)cc3)nc2c1)C1CCCC1` [Example 43, N-[2-(4-fluorophenyl)benzotriazol-5-yl]cyclopentanecarboxamide], for which the IC50 worked out at 8.2 µM with HBsAg and 12.8 µM in the series with HBeAg. In addition, the CC50 at 144 h in series [1] is over 100 µM.
For `O=C(CC(F)(F)F)Nc1ccc2nn(-c3ccc(F)cc3)nc2c1` [Example 44, 3,3,3-trifluoro-N-[2-(4-fluorophenyl)benzotriazol-5-yl]propanamide], in that order: 6.87 µM, 11.7 µM and over 100 µM.
In the case of `O=C(Nc1ccc2nn(-c3ccc(Cl)cc3)nc2c1)C1CCOCC1` [Example 45, N-[2-(4-chlorophenyl)benzotriazol-5-yl]tetrahydropyran-4-carboxamide], the IC50 was 3.39 µM in the series with HBsAg and 1.98 µM in the series on HBeAg. In addition, the CC50 at 144 h in series [1] was over 100 µM.
For `O=C(Nc1ccc2nn(-c3ccc(Cl)cc3)nc2c1)C1CCCCO1` (stereo not drawn) [Example 46, N-[2-(4-chlorophenyl)benzotriazol-5-yl]tetrahydropyran-2-carboxamide] the same measures were 2.68 µM, 1.14 µM and over 100 µM.
For the molecule `O=C(Nc1ccc2nn(-c3ccc(Cl)cc3)nc2c1)C1COCCO1` (stereo not drawn) [Example 47, N-[2-(4-chlorophenyl)benzotriazol-5-yl]-1,4-dioxane-2-carboxamide], the IC50 in the series on HBsAg came out at 3.73 µM; with HBeAg it was 1.84 µM. The CC50 at 144 h in series [1] was over 100 µM.
For `O=C(Nc1ccc2nn(-c3ccc(Cl)cc3)nc2c1)C1CCOC1` (stereo not drawn) [Example 48, N-[2-(4-chlorophenyl)benzotriazol-5-yl]tetrahydrofuran-3-carboxamide], the IC50 stood at 4.81 µM with HBsAg and 3.12 µM in the series with HBeAg. Further, the cytotoxic concentration (CC50) at 144 h in series [1] is over 100 µM.
Regarding `O=C(Nc1ccc2nn(-c3ccc(Cl)cc3)nc2c1)C1CCCC1` [Example 49, N-[2-(4-chlorophenyl)benzotriazol-5-yl]cyclopentanecarboxamide], the IC50 in the series with HBsAg is 2.84 µM; with HBeAg, 1.29 µM. In series [1], this molecule came in with a CC50 at 144 h of over 100 µM.
On to `O=C(Nc1ccc2nn(-c3ccc(Cl)cc3)nc2c1)C1CCCO1` (stereo not drawn) [Example 50, N-[2-(4-chlorophenyl)benzotriazol-5-yl]tetrahydrofuran-2-carboxamide], for which the half-inhibitory concentration (IC50) with HBsAg was found to be 1.26 µM; with HBeAg it was 1.37 µM. The molecule also returned a CC50 at 144 h in series [1] of over 100 µM.
As to `O=C(CC(F)(F)F)Nc1ccc2nn(-c3ccc(Cl)cc3)nc2c1` [Example 51, N-[2-(4-chlorophenyl)benzotriazol-5-yl]-3,3,3-trifluoro-propanamide], the IC50 in the series on HBsAg was 4.09 µM; in the series with HBeAg, 1.66 µM. The CC50 at 144 h in series [1] is over 100 µM.
For `O=C(CCC(F)(F)F)Nc1ccc2nn(-c3ccc(Cl)cc3)nc2c1` [Example 52, N-[2-(4-chlorophenyl)benzotriazol-5-yl]-4,4,4-trifluoro-butanamide] the same measures were 2.25 µM, 1.89 µM and over 100 µM.
